According to patent US4122184A, “Benzimidazole insecticides” (priority 1977, dated 1978):

Assays:
[1] = tested on: Potato Flea Beetle Adults; experiment: Field trial, stomach poison test; assay type: in vivo
Experimental: (§1) Leaves from the infested plant are treated with different concentrations of the test compounds, either by spraying with a DeVilbiss Special Atomizer (5004) at 10 psi or by dipping the leaves in solutions containing the compound. The leaves are then allowed to air dry.
(§2) After the leaves have dryed, they are placed in plastic petri dishes (100 × 25 mm), then the insects are counted out into each dish, five or ten insects per dish depending on the number of insects available. There are one or two replicates and usually two or three rates with each compound. Mortality results are taken at 24, 48 and 72 hours. The rating scale is 0 to 9.
(§3) Using the above methods, field trials were carried out against species of 5 orders of insects. The results, which are summarized in the following tables, give the average mortality for the particular insect with a given benzimidazole for each concentration employed. […] These tables contain all results obtained during the summer trials.

[2] = tested on: Red-Legged Grasshopper Adults; experiment: Field trial, stomach poison test; assay type: in vivo
Experimental: as §1, §2, §3

Bean Leaf Beetle [3] = experiment: Field trial, stomach poison test; assay type: in vivo
Experimental: as §1, §2, §3

[4] = tested on: Striped Cucumber Beetle Adults; experiment: Field trial, stomach poison test; assay type: in vivo; parameters: key: mortality rating on a 0 to 9 scale
Experimental: as §1, §2, §3

Boll Weevil = experiment: Field trial (first summer), topical; assay type: in vivo, Anthonomus grandis; conditions: .15625 μg/μl
Experimental: (§4) In a variation of the above test, 1 microliter of a test solution containing a predetermined number of micrograms of benzimidazole was applied directly to larvae or adult insects.
(§5) During the previous summer similar field trials were conducted employing the same tests as heretofore but with some additional species of insects not included in the later tests. The results listed below are for tests in which an insect mortality was established by a given application route and at a given concentration in a particular test. The same 0 - 9 scoring system is used as is the designation of compounds by alphabetical symbols.

Confused Flour Beetle = experiment: Field trial (first summer), topical; assay type: in vivo; conditions: .078125 μg/μl
Experimental: as §4, §5

Picnic Beetle = experiment: Field trial (first summer), topical; assay type: in vivo; conditions: .078125 μg/μl
Experimental: as §4, §5

[5] = tested on: Potato Flea Beetle Adults; experiment: Field trial, contact poison test; assay type: in vivo
From the text: (§6) Infested plants are placed in 6 oz. prescription bottles filled with water to keep them from wilting. Cellucotton is wrapped around the plant stem and squeezed into the bottle neck to prevent the insects from drowning.
(§7) A DeVilbiss Special Atomizer (5004) is used at 10 psi to spray the test plant with different concentrations of compounds. The atomizer is held at arm's length to prevent blowing the insects off the host plant. After treating, the bottles are placed on a table covered with brown wrapping paper to catch the dead insects as they drop from the plant. The plants are spaced so the leaves or plants are not touching one another.
(§8) The results are read at 24, 48, and 72 hours when applicable. The rating scale is 0 to 9 where 0 = 0-10 percent and 9 = 91-100 percent mortality.
as §3

[6] = tested on: Red-Legged Grasshopper Adults; experiment: Field trial, contact poison test; assay type: in vivo
From the text: as §6, §7, §8, §3

Bean Leaf Beetle [7] = experiment: Field trial, contact poison test; assay type: in vivo
From the text: as §6, §7, §8, §3

Yellow Mealworm Larvae = experiment: Field trial, topical application; assay type: in vivo; parameters: key: 0 = 0-10% mortality, 9 = 91-100% mortality (0-9 scale)
Experimental: as §8, §4, §3

[8] = tested on: Two-Spotted Spider Mite (2-SSM); experiment: Miticide test, acute mortality, foliar spray; assay type: in vivo, Tetranychus urticae
Experimental: Each 5 mg. sample of technical compound preweighed at Greenfield was dissolved in 2.5 ml. of acetone and diluted with 247.5 ml. of water containing a combination of […]
(§9) The treated cuttings were stored in the greenhouse for 24 hours before evaluation under a binocular disecting microscope in the laboratory. In evaluating the results of the miticide test, each treated cutting was removed from the test tube, observed for live and dead mites at 14 × magnification, and returned immediately to the test tube. A scale of 0-9 was used as before.
The test employing two-spotted spider mites was conducted in similar fashion except that the mites were maintained on squash seedlings or squash cuttings.

Meadow Spittlebug = experiment: Field trial, stomach poison test; assay type: in vivo
Experimental: as §1, §2, §3

Aphids - Apple = experiment: Field trial, stomach poison test; assay type: in vivo
Experimental: as §1, §2, §3

Aphids - Sour Gum = experiment: Field trial, stomach poison test; assay type: in vivo
Experimental: as §1, §2, §3

Aphids - Tulip Tree = experiment: Field trial, stomach poison test; assay type: in vivo
Experimental: as §1, §2, §3

[9] = tested on: Southern Corn Rootworm Adults; experiment: Field trial, stomach poison test; assay type: in vivo; parameters: key: mortality rating on a 0 to 9 scale
Experimental: as §1, §2, §3

[10] = tested on: Unidentified Green Leafhopper; experiment: Field trial, stomach poison test; assay type: in vivo; parameters: key: mortality rating on a 0 to 9 scale
Experimental: as §1, §2, §3

[11] = tested on: Tarnished Plant Bug Adults; experiment: Field trial, stomach poison test; assay type: in vivo; parameters: key: mortality rating on a 0 to 9 scale
Experimental: as §1, §2, §3

Squash Bug Adults = experiment: Field trial, contact poison test; assay type: in vivo; parameters: key: 0-9 rating: 0 = 0-10% mortality, 9 = 91-100% mortality
From the text: as §6, §7, §8, §3

[12] = tested on: Southern Corn Rootworm Adults; experiment: Field trial, contact poison test; assay type: in vivo
From the text: as §6, §7, §8, §3

Citrus Rust Mite (CRM) = experiment: Miticide test, acute mortality, foliar spray; assay type: in vivo; conditions: after 72 hours
Experimental: Citrus cuttings were obtained and prepared for testing within 24 hours prior to inoculation with citrus rust mites. To prepare the cuttings, terminals of branches 12 to 14 inches in length were cut from temple orange trees, immediately placed in tap water and taken into the laboratory. Uniform hardwood cuttings, 3 to 4 inches in length, were cut from the branches, all but one hardened leaf was removed from the cuttings, and the remaining leaf was wiped clean with a cotton pad soaked in 10% ethanol solution. Each cutting was immediately placed in tap water in a test tube with the closed leaf extending out of the test tube. Then, a ring of melted lanolin was applied around the petiole to prevent migration of mites from the leaf. One cutting was used for each replicate.
When the leaves were dry immediately after cleaning, citrus rust mites were transferred to the test leaves by cutting a heavily infested colony leaf (from a source colony maintained on citrus seedlings) into 20 to 22 sections (approximately 0.25 by 0.5 inches in size) and using forceps to place 1 section on each leaf cutting. As the section became desiccated the mites moved to the whole leaf and in 20 hours the sections were removed from the leaves for treatment application.
Treatments were applied within 24 hours after inoculation by removing the cuttings from the test tube and submerging the leaves in the treatment solution for 5 seconds by hand and immediately returning the cutting to the test tube. […]
as §9

`O=[N+]([O-])c1cc(C(F)(F)F)cc2nc(C(F)F)[nH]c12` [Q, 2-difluoromethyl-4-nitro-6-trifluoromethylbenzimidazole] was tested, and the average mortality rating ([1]; 5 ppm) was 0 (0-10 percent), the average mortality rating ([1]; 10 ppm) was 1 and the average mortality rating ([1]; 25 ppm) was 1. For the same molecule, the average mortality rating ([1]; 50 ppm) was 5, the average mortality rating ([2]; 10 ppm) was 1 and the average mortality rating ([2]; 25 ppm) was 1. The average mortality rating ([2]; 50 ppm) was 5, the average mortality rating (Bean Leaf Beetle [3]; 10 ppm) was 0 (0-10 percent) and the average mortality rating (Bean Leaf Beetle [3]; 25 ppm) was 0 (0-10 percent). The average mortality rating (Bean Leaf Beetle [3]; 50 ppm) was 0 (0-10 percent), the average mortality rating ([4]; 10 ppm) was 2 and the average mortality rating ([4]; 25 ppm) was 3. It also gave an average mortality rating ([4]; 50 ppm) of 2, an average mortality rating ([4]; 100 ppm) of 2 and an insect mortality rating (Boll Weevil) of 5. For the same molecule, the insect mortality rating (Confused Flour Beetle) was 7, the insect mortality rating (Picnic Beetle) was 9 (91-100 percent mortality) and the average mortality rating ([5]; 10 ppm) was 3. The average mortality rating ([5]; 25 ppm) was 6, the average mortality rating ([5]; 50 ppm) was 8 and the average mortality rating ([6]; 10 ppm) was 0 (0-10 percent). For the same molecule, the average mortality rating ([6]; 25 ppm) was 4, the average mortality rating ([6]; 50 ppm) was 5 and the average mortality rating (Bean Leaf Beetle [7]; 25 ppm) was 0 (0-10 percent). The average mortality rating (Bean Leaf Beetle [7]; 50 ppm) was 0 (0-10 percent), the average mortality rating (Bean Leaf Beetle [7]; 100 ppm) was 0 (0-10 percent) and the average mortality rating (Yellow Mealworm Larvae; 0.03 μg/μl) was 1. It also gave an average mortality rating (Yellow Mealworm Larvae; 0.07 μg/μl) of 4 and an average mortality rating (Yellow Mealworm Larvae; 0.15 μg/μl) of 7.

With `CCOC(=O)n1c(C(F)(F)F)nc2c([N+](=O)[O-])cc(C(F)(F)F)cc21` [U, ethyl 4-nitro-2,6-bis(trifluoromethyl)benzimidazolecarboxylate] the acute mortality rating ([8]; 6.25 ppm) was 1, the acute mortality rating ([8]; 12.5 ppm) was 3 and the acute mortality rating ([8]; 25 ppm) was 8. For the same molecule, the acute mortality rating ([8]; 50 ppm) was 8, the acute mortality rating ([8]; 100 ppm) was 9 (91-100 percent mortality) and the average mortality rating (Meadow Spittlebug; 10 ppm) was 5. The average mortality rating (Meadow Spittlebug; 25 ppm) was 5, the average mortality rating (Meadow Spittlebug; 50 ppm) was 3 and the average mortality rating (Meadow Spittlebug; 100 ppm) was 0 (0-10 percent). The average mortality rating (Aphids - Apple; 25 ppm) was 2, the average mortality rating (Aphids - Apple; 50 ppm) was 4 and the average mortality rating (Aphids - Apple; 100 ppm) was 6. The average mortality rating (Aphids - Sour Gum; 25 ppm) was 9 (91-100 percent mortality), the average mortality rating (Aphids - Sour Gum; 50 ppm) was 7 and the average mortality rating (Aphids - Sour Gum; 100 ppm) was 9 (91-100 percent mortality). The average mortality rating (Aphids - Tulip Tree; 25 ppm) was 6, the average mortality rating (Aphids - Tulip Tree; 50 ppm) was 8 and the average mortality rating (Aphids - Tulip Tree; 100 ppm) was 9 (91-100 percent mortality). For the same molecule, the average mortality rating ([9]; 25 ppm) was 5, the average mortality rating ([9]; 50 ppm) was 3 and the average mortality rating ([9]; 100 ppm) was 3. For the same molecule, the average mortality rating ([10]; 10 ppm) was 3, the average mortality rating ([10]; 25 ppm) was 7 and the average mortality rating ([10]; 50 ppm) was 9 (91-100 percent mortality). The average mortality rating ([4]; 10 ppm) was 2, the average mortality rating ([4]; 25 ppm) was 1 and the average mortality rating ([4]; 50 ppm) was 4. The average mortality rating ([4]; 100 ppm) was 9 (91-100 percent mortality), the average mortality rating ([11]; 10 ppm) was 0 (0-10 percent) and the average mortality rating ([11]; 25 ppm) was 1. For the same molecule, the average mortality rating ([11]; 50 ppm) was 6, the average mortality rating (Squash Bug Adults; 125 ppm) was 5 and the average mortality rating (Squash Bug Adults; 250 ppm) was 5. The average mortality rating (Squash Bug Adults; 500 ppm) was 7, the average mortality rating (Squash Bug Adults; 750 ppm) was 7 and the average mortality rating ([12]; 25 ppm) was 4. For the same molecule, the average mortality rating ([12]; 50 ppm) was 9 (91-100 percent mortality), the average mortality rating ([12]; 100 ppm) was 9 (91-100 percent mortality) and the average mortality rating ([6]; 25 ppm) was 9 (91-100 percent mortality). The average mortality rating ([6]; 50 ppm) was 9 (91-100 percent mortality), the acute mortality rating (Citrus Rust Mite (CRM); 6.25 ppm) was 1 and the acute mortality rating (Citrus Rust Mite (CRM); 12.5 ppm) was 1. The acute mortality rating (Citrus Rust Mite (CRM); 25 ppm) was 9 (91-100 percent mortality), the acute mortality rating (Citrus Rust Mite (CRM); 50 ppm) was 9 (91-100 percent mortality) and the acute mortality rating (Citrus Rust Mite (CRM); 100 ppm) was 8. For the same molecule, the average mortality rating (Yellow Mealworm Larvae; 0.03 μg/μl) was 4, the average mortality rating (Yellow Mealworm Larvae; 0.07 μg/μl) was 4 and the average mortality rating (Yellow Mealworm Larvae; 0.15 μg/μl) was 6.
